Measured values from PMC11413854, “Reversible Control of Native GluN2B-Containing NMDA Receptors with Visible Light” (ACS Chemical Neuroscience, 2024).
Several values for one entry are separate records, joined by “and”; a condition that tells them apart may be missing. Identical values can stand only once.

Tested on: native NMDA currents of cultured cortical neurons
Assay: Whole-cell patch-clamp of NMDA currents in cultured cortical neurons (DIV 6-8), spectral dependence of bound OptoNAM-3
Format: cell-based, mouse
Details: for inhibition of NMDA currents in cortical neurons: 2 µM
Method: We then turned to native NMDA currents. We repeated these experiments on cultured cortical neurons at days in vitro [DIV] 6–8, a stage at which GluN2B-containing NMDARs form the major population of neuronal NMDARs.[48] On cortical neurons, 2 μM OptoNAM-3 induced 70% inhibition of NMDA-induced currents in the dark. The lower inhibitory effect of trans-OptoNAM-3 on neurons compared to HEK cells is most likely due to the mixture of NMDAR subtypes expressed in neurons.[48] […] This effect is furthermore partially reversible thanks to the use of 550 nm light.
Mice were housed in the IBENS rodent central facility duly accredited by the French Ministry of Agriculture. All experiments were performed in compliance with French and European regulations on care and protection of laboratory animals (EU Directive 2010/63, French Law 2013–118, February 6, 2013), and were approved by local ethics committees and by the French Ministry of Research and Innovation (authorization numbers #05137.02, APAFIS #28867-2020121814485893). Dissociated cultures of cortical neurons were prepared from mouse embryos at E18 as described previously.[84] After removing meninges, cortices were placed in ice-cold HBSS solution. Cell dissociation was performed individually for cortices of each embryo. Cortices were incubated in 2.5% trypsin at 37 °C for 7 min, rinsed three times with 37 °C phosphate buffer saline, and finally suspended in plating medium (Neurobasal Medium, supplemented with 0.5 mM L-glutamine, 1% B27 supplement, and penicillin/streptomycin). The neurons were further dissociated by trituration, and cells were plated on poly-D-lysine coated coverslips in 24-well culture dishes at a density of 3 × 10^5 cells per well for the excitotoxicity test and that of 1 × 10^5 cells per well for patch clamp experiments. Cultures were incubated at 37 °C in a humidified atmosphere of 5% CO2. Cells were fed by changing 1/2 medium to fresh Neurobasal medium every 4 days. For the excitotoxicity experiments, after 5 days in vitro, growth of non-neuronal cells was halted by a 24 h exposure to FDX ([…] 5-fluoro-2′-deoxyuridine). The cultures were used for experiments after 6 to 14 days in vitro (DIV6–8 for patch clamp experiments and DIV14 for excitotoxicity tests).
Whole-cell patch-clamp recordings on neurons were performed 6 to 8 days after the culturing step (DIV 6–8) using the same recording conditions as for HEK cells. Recordings were performed at a holding potential of −60 mV and at room temperature. Currents were elicited by NMDA (300 μM) and D-serine (50 μM) to specifically activate NMDARs.
OptoNAM-3 was perfused in the dark onto the patched neuron (Figure 5A–C). […] Stopping perfusion ensures that trans-OptoNAM coming from the perfusion tube […] with the wavelength PSS during the illumination procedure.
OptoNAM-3 was perfused in the dark onto the patched neuron (Figures 4G,H and 5F,H). […] Then, wavelengths from 435 to 580 nm were applied and the inhibition recovery was monitored.
For the trans to cis and cis to trans isomerization study in the binding site (Figure 5C,H respectively), we decided to normalize (scale) the inhibition values of OptoNAM-3 at different wavelengths by the inhibition induced by OptoNAM-3 at 365 nm and in the dark since these two conditions represent respectively the minimum and maximum of the inhibition. We followed this equation: [drawing 2] where m ∈ [r365,rdark] is the measurement (inhibition) to be scaled, r365 and rdark correspond to the minimum (365 nm state inhibition) and maximum (dark state inhibition) of the measurement, respectively, and t365 and tdark represent the minimum and maximum of the range (OptoNAM-3 365 nm PSS and dark PSS mean inhibition). To reduce the decreasing effect of normalization onto SEM, the SEMs represented in the figures were calculated with the data injected in the first part of the equation ( [drawing 3] ). […]

c1ccc(/N=N/c2ccc(CCNc3ccncc3)cc2)cc1 [OptoNAM-3, (E)-N-(4-(Phenyldiazenyl)phenethyl)pyridin-4-amine]
inhibition of NMDA currents in cortical neurons (365 nm irradiation on the cell (Fig 5C)): 27% ± 2%
inhibition of NMDA currents in cortical neurons (550 nm illumination from UV state (Fig 4H)): 52% ± 3% and 52.150%
inhibition of NMDA currents in cortical neurons (550 nm post 365 nm illumination (Fig 5H)): 55% ± 4%
inhibition of NMDA currents in cortical neurons (dark, NMDA 300 µM + D-serine 50 µM): 70% ± 3% and 70.580%
inhibition of NMDA currents in cortical neurons (under 365 nm illumination (Fig 4H)): 25% ± 4% and 25.090%
proportion of cis isomer, bound OptoNAM-3 365 nm PSS (365 nm on the cell, calculated from inhibition): ~90%
proportion of cis isomer, bound OptoNAM-3 (460 nm light from dark state, calculated from inhibition): ~68%
trans-to-cis isomerization in the binding site (550 and 580 nm applied from the dark state): did not induce visible trans-to-cis isomerization
% Inhibition (normalized), mean (Figure 5C series (from dark PSS), 365 nm): 27.607%
% Inhibition (normalized), mean (Figure 5C series (from dark PSS), 435 nm): 44.741%
% Inhibition (normalized), mean (Figure 5C series (from dark PSS), 460 nm): 50.648%
% Inhibition (normalized), mean (Figure 5C series (from dark PSS), 490 nm): 64.437%
% Inhibition (normalized), mean (Figure 5C series (from dark PSS), 525 nm): 71.178%
% Inhibition (normalized), mean (Figure 5C series (from dark PSS), 550 nm): 73.370%
% Inhibition (normalized), mean (Figure 5C series (from dark PSS), 580 nm): 73.446%
% Inhibition (normalized), mean (Figure 5C series, dark): 73.585%
% Inhibition (normalized), mean (Figure 5H series (from 365 nm PSS), 365 nm): 27.795%
% Inhibition (normalized), mean (Figure 5H series (from 365 nm PSS), 435 nm): 27.982%
% Inhibition (normalized), mean (Figure 5H series (from 365 nm PSS), 460 nm): 29.032%
% Inhibition (normalized), mean (Figure 5H series (from 365 nm PSS), 490 nm): 44.081%
% Inhibition (normalized), mean (Figure 5H series (from 365 nm PSS), 525 nm): 43.503%
% Inhibition (normalized), mean (Figure 5H series (from 365 nm PSS), 550 nm): 54.910%
% Inhibition (normalized), mean (Figure 5H series (from 365 nm PSS), 580 nm): 47.001%
% Inhibition (normalized), mean (Figure 5H series, dark): 73.111%
proportion of trans isomer, bound OptoNAM-3 (at 365, 435 and 460 nm post 365 nm illumination, calculated from inhibition): ~10%
